Reference: PubChem BioAssay (NCI)
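Where inhibition never reached the appropriate level, the endpoint shown equals the highest concentration tested. Otherwise, values were interpolated linearly from a five-concentration, 48-hour dose response in 96-well plates. Abbreviation: GI50, concentration required for 50% inhibition of growth. The concentration for full growth arrest is given as TGI.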

Columns and labels:
Test in all cases: NCI tumour cell line growth inhibition, 48 h
[1] = system: COLO 205 colon
[2] = system: OVCAR-8 ovarian
[3] = system: UO-31 renal
[4] = system: HS 578T breast
[5] = system: OVCAR-5 ovarian
[6] = system: A549 NSCLC
[7] = system: SN12C renal
[8] = system: MALME-3M melanoma
[9] = system: OVCAR-4 ovarian
[10] = system: SW-620 colon
[11] = system: SK-MEL-2 melanoma
[12] = system: IGROV1 ovarian
[13] = system: HCC-2998 colon
[14] = system: SF-295 CNS
[15] = system: SNB-75 CNS
[16] = system: UACC-257 melanoma
[17] = system: ACHN renal
[18] = system: MOLT-4 leukemia
[19] = system: HL-60(TB) leukemia
[20] = system: HOP-62 NSCLC
[21] = system: TK-10 renal
[22] = system: HOP-92 NSCLC
[23] = system: SF-268 CNS
[24] = system: 786-0 renal
[25] = system: CCRF-CEM leukemia
[26] = system: HCT-116 colon
[27] = system: SK-MEL-5 melanoma
[28] = system: KM12 colon
[29] = system: T-47D breast
[30] = system: U251 CNS
[31] = system: RXF 393 renal
[32] = system: SR leukemia
[33] = system: DU-145 prostate
[34] = system: CAKI-1 renal
[35] = system: SNB-19 CNS
[36] = system: HCT-15 colon
[37] = system: HT29 colon
[38] = system: MCF7 breast
[39] = system: NCI-H522 lung
[40] = system: PC-3 prostate
[41] = system: OVCAR-3 ovarian
[42] = system: SF-539 CNS
[43] = system: MDA-MB-435
[44] = system: K-562 leukemia
[45] = system: NCI-H23 lung
[46] = system: M14 melanoma
[47] = system: UACC-62 melanoma
[48] = system: EKVX NSCLC
[49] = system: NCI-H460 lung
[50] = system: SK-MEL-28 melanoma
[51] = system: SK-OV-3 ovarian
[52] = system: NCI/ADR-RES ovarian
[53] = system: NCI-H226 lung
[54] = system: A498 renal
[55] = system: LOX IMVI melanoma
[56] = system: RPMI-8226 leukemia
[57] = system: MDA-MB-231 breast
[58] = system: BT-549 breast

`O=c1ccn(Cc2ccccc2CCl)c(=O)[nH]1` gave a TGI [1] of 94.3 µM, a TGI [2] of 55.8 µM and a TGI [3] of 77.3 µM. The TGI [4] was 91.2 µM, the TGI [5] was 37.4 µM and the TGI [6] was greater than 100 µM. The TGI [7] was 59.4 µM, the TGI [8] was 40.6 µM and the TGI [9] was greater than 100 µM. For the same molecule, the TGI [10] was greater than 100 µM, the TGI [11] was 89 µM and the TGI [12] was 55.3 µM. It also gave a TGI [13] of 59 µM, a TGI [14] of 64.1 µM and a TGI [15] greater than 100 µM. The TGI [16] was 98.8 µM, the TGI [17] was 75.6 µM and the TGI [18] was greater than 100 µM. The TGI [19] was greater than 100 µM, the TGI [20] was 52.7 µM and the TGI [21] was greater than 100 µM. The TGI [22] was greater than 100 µM, the TGI [23] was 75.8 µM and the TGI [24] was 38 µM. For the same molecule, the TGI [25] was greater than 100 µM, the TGI [26] was 46 µM and the TGI [27] was 23.3 µM. The TGI [28] was 83.3 µM, the TGI [29] was greater than 100 µM and the TGI [30] was 85.2 µM. The TGI [31] was 53.5 µM, the TGI [32] was 73.4 µM and the TGI [33] was greater than 100 µM. For the same molecule, the TGI [34] was 64 µM, the TGI [35] was greater than 100 µM and the TGI [36] was 35.8 µM. The TGI [37] was 68.6 µM, the TGI [38] was 77.9 µM and the TGI [39] was 43.9 µM. The TGI [40] was greater than 100 µM, the TGI [41] was 42 µM and the TGI [42] was 52.7 µM. It also gave a TGI [43] of 96.5 µM, a TGI [44] greater than 100 µM and a TGI [45] of 40.1 µM. It also gave a TGI [46] of 73.9 µM, a TGI [47] of 63.4 µM and a TGI [48] of 59.6 µM. The TGI [49] was greater than 100 µM, the TGI [50] was greater than 100 µM and the TGI [51] was greater than 100 µM. For the same molecule, the TGI [52] was 44.4 µM.
In the case of `C=C1C(=O)O[C@@H]2C[C@@H]1CC[C@]1(C)O[C@H]1CC/C(C)=C/CC[C@@]2(C)O`, the GI50 [1] is reported as 18.1 µM, the TGI [1] is reported as 34.8 µM and the GI50 [2] is reported as 22.3 µM. It also gave a TGI [2] of 57.8 µM, a GI50 [53] of 21.7 µM and a TGI [53] of 59.2 µM. For the same molecule, the GI50 [3] was 29.5 µM, the TGI [3] was greater than 100 µM and the GI50 [54] was 23.3 µM. It also gave a TGI [54] of 74.5 µM, a GI50 [4] of 21.7 µM and a TGI [4] of 68.5 µM. It also gave a GI50 [5] of 28.6 µM, a TGI [5] of 96 µM and a GI50 [6] of 25.3 µM. It also gave a TGI [6] of 83.7 µM, a GI50 [7] of 18.6 µM and a TGI [7] of 41.1 µM. For the same molecule, the GI50 [55] was 0.895 µM, the TGI [55] was 4.85 µM and the GI50 [10] was 15.8 µM. For the same molecule, the TGI [10] was 33.7 µM, the GI50 [11] was 64.4 µM and the TGI [11] was greater than 100 µM. The GI50 [12] was 31.7 µM, the TGI [12] was greater than 100 µM and the GI50 [13] was 10.6 µM. The TGI [13] was 23.6 µM, the GI50 [14] was 29.7 µM and the TGI [14] was 92.5 µM. It also gave a GI50 [56] of 6.58 µM, a TGI [56] greater than 100 µM and a GI50 [16] of 11.3 µM. It also gave a TGI [16] of 31.8 µM, a GI50 [18] of 11.7 µM and a TGI [18] of 28.1 µM. For the same molecule, the GI50 [20] was 24.2 µM, the TGI [20] was 47.7 µM and the GI50 [21] was 15.4 µM. For the same molecule, the TGI [21] was 37.8 µM, the GI50 [22] was 29.1 µM and the TGI [22] was 82.7 µM. The GI50 [23] was 19.9 µM, the TGI [23] was 50.5 µM and the GI50 [24] was 17 µM. For the same molecule, the TGI [24] was 31.2 µM, the GI50 [25] was greater than 100 µM and the TGI [25] was greater than 100 µM. The GI50 [57] was 21.4 µM, the TGI [57] was 48.8 µM and the GI50 [26] was 13.1 µM. The TGI [26] was 25.8 µM, the GI50 [27] was 24.3 µM and the TGI [27] was 52.7 µM. It also gave a GI50 [28] of 16.2 µM, a TGI [28] of 34.3 µM and a GI50 [29] of 28.8 µM. For the same molecule, the TGI [29] was 58.7 µM, the GI50 [30] was 15.5 µM and the TGI [30] was 28.9 µM. It also gave a GI50 [31] of 25.1 µM, a TGI [31] of 55.4 µM and a GI50 [32] of 4.07 µM. For the same molecule, the TGI [32] was 15.7 µM, the GI50 [34] was 18.7 µM and the TGI [34] was 37 µM. The GI50 [35] was 49.6 µM, the TGI [35] was greater than 100 µM and the GI50 [58] was 16.9 µM. For the same molecule, the TGI [58] was 39.3 µM, the GI50 [36] was 8.51 µM and the TGI [36] was 21.3 µM. It also gave a GI50 [37] of 15.4 µM, a TGI [37] of 31.7 µM and a GI50 [38] of 15.2 µM. The TGI [38] was 36 µM, the GI50 [39] was 27.2 µM and the TGI [39] was greater than 100 µM. The GI50 [40] was 96.3 µM, the TGI [40] was greater than 100 µM and the GI50 [41] was 23.1 µM. It also gave a TGI [41] of 64.1 µM, a GI50 [42] of 16.5 µM and a TGI [42] of 34.5 µM. For the same molecule, the GI50 [43] was 18.3 µM, the TGI [43] was 41.1 µM and the GI50 [44] was 34.3 µM. It also gave a TGI [44] greater than 100 µM, a GI50 [45] of 20.9 µM and a TGI [45] of 58.4 µM. It also gave a GI50 [46] of 16.8 µM, a TGI [46] of 35.3 µM and a GI50 [47] of 17.5 µM. It also gave a TGI [47] of 36.4 µM, a GI50 [48] of 23.4 µM and a TGI [48] of 80.2 µM. For the same molecule, the GI50 [49] was 15.7 µM, the TGI [49] was 40.2 µM and the GI50 [51] was 25.5 µM. It also gave a TGI [51] of 64 µM, a GI50 [52] of 20.9 µM and a TGI [52] of 56.3 µM.
`C#CC[C@@H]1C[C@]2(C)[C@H]3CC=C4[C@H]5[C@@H](C)[C@H](C)CC[C@]5(C(=O)NCCCCCCCCN)CC[C@@]4(C)[C@]3(C)CC[C@H]2C(C)(C)[C@H]1OC(C)=O` showed a GI50 [2] of 2.15 µM, a TGI [2] of 5.01 µM and a GI50 [54] of 1.78 µM. It also gave a TGI [54] of 3.21 µM, a GI50 [44] of 2.02 µM and a TGI [44] of 5.69 µM.
